Experimental data: patent US7718764B2, “Biologically active peptide [sequence] derivatives” (CMS Peptides Patent Holding Company Limited, priority 2004, dated 2010)
Marks after values point to notes of the source that are not given here.

How the values were obtained:
mice T-lymphocyte [1] = assay: Mice T-lymphocyte transformation induced by ConA in vitro (spleen cells, MTT); assay type: cell-based, BALB/c mice; details: for OD: Table 2, ConA 5 μg/ml, 68 hrs
Description: The spleens from healthy mice were isolated aseptically and manually dispersed in 10% FBS RPMI-1640 solution using an injection needle. The dispersed cell suspension was further sieved through a 100-gauge 150 μm diameter stainless steel sieve. The spleen cell suspension was adjusted to a density of 4×10^6/ml and was aliquoted onto 96-well cell culture plates at 100 μl/well. Peptides were dissolved in plain RPMI-1640. The design of the groupings was as given below.
Peptide group: 100 μl working peptide solution+75 μl spleen cell suspension+25 μl ConA working solution.
ConA control group: 100 μl RPMI-1640+75 μl spleen cell suspension+25 μl ConA working solution.
Negative control group: 125 μl RPMI-1640+75 μl spleen cell suspension.
The final concentration of ConA in the well was 5 μg/ml. The final concentrations of peptides in the well were 80 μg/ml, 16 μg/ml, 3.2 μg/ml, 0.64 μg/ml, and 0.128 μg/ml. Each peptide group contained three parallel wells, and eight or twelve wells for the control groups. The cells were incubated for 68 hrs at 37° C., 5% CO2. MTT method was used to obtain a reading of OD570 nm of each well referenced at 630 nm on an ELISA reader.

S180 sarcoma cells = assay: Growth of KM mice-transplanted S180 sarcoma cells in vivo; parameters: unit not given here; details: Table 12; for Sarcoma volume: V=(1/6)πABC, saline 1.20 ± 0.28; for Sarcoma weight: saline 1.87 ± 0.52
Description: S180 sarcoma cells were transplanted intraperitoneally into KM mice for 6-8 days and the ascites aseptically collected. The cell concentration was adjusted to 1×10^7 per ml with 10% FBS RPMI-1640, and 0.2 ml cell suspension was injected through the armpit into each KM mice for developing the sarcoma bearing mice model. […] Intraperitoneal injection of test substances started on the day immediately after tumor transplantation and continued once per day for 20 consecutive days.
On the day after the last test substance administration, the sarcomas were removed from the mice and weighed. The diameters of each sarcoma on the three planes (A, B, C) were measured by a vernier caliper. The volume of the sarcoma was calculated by the formula: V=(⅙)πABC.

mice NK cell = assay: Mice NK cell activity in vivo (i.p. dosing 20 days, spleen effector cells vs YAC-1 target cells, MTT); parameters: species or system BALB/c mice
Description: Animals were randomized into two peptide groups (200 μg/kg/day and 50 μg/kg/day), Cyclosporine A group (10 mg/kg/day), and saline group (0.5 ml/day). Each group contained 10 mice, in which half were female and half were male. All test substances were dissolved in 0.5 ml saline and administered intraperitoneally once per day for 20 days. T-lymphocyte transformation and NK cell activity were examined on the day immediately following the last injection. YAC-1 target cells were brought to log phase and adjusted to a density of 1×10^5/ml. Mice spleen cells prepared in section 2.2.2 above were adjusted to a density of 4×10^6/ml and used as effector cells. The cell suspensions were inoculated onto 96 wells cell culture plates as follows: Effector cell wells: 100 μl spleen cell suspension+100 μl RPMI-1640 Assay wells: 100 μl spleen cell suspension+100 μl YAC-1 cell suspension Target cell wells: 100 μl YAC-1 cell suspension+100 μl RPMI-1640 Three assay wells and three effector cell wells were set up for each animal, and 12 target cell wells were set up per cell culture plate. The plates were incubated at 37° C., 5% CO2 for 4 hours, then MTT was added and the plates were read at OD 570 nm referenced at 630 nm with ELISA reader. NK cell activity (%)=1−[(assay wells OD−effector cell wells OD)/target cell wells OD]×100%

mice T-lymphocyte [2] = assay: Mice T-lymphocyte transformation in vivo (i.p. dosing 20 days, spleen cells + ConA, MTT, stimulation index); parameters: species or system BALB/c mice; details: for Effect on mice T-lymphocyte transformation in vivo: at suitable dosages, vs saline control P<0.05
Description: Animals were randomized into two peptide groups (200 μg/kg/day and 50 μg/kg/day), Cyclosporine A group (10 mg/kg/day), and saline group (0.5 ml/day). Each group contained 10 mice, in which half were female and half were male. All test substances were dissolved in 0.5 ml saline and administered intraperitoneally once per day for 20 days. T-lymphocyte transformation and NK cell activity were examined on the day immediately following the last injection. The day after the last test substance administration, the mice were sacrificed by cervical dislocation. The spleens were isolated aseptically and manually dispersed in 10% FBS RPMI-1640 solution using an injection needle. The dispersed cell suspension was further sieved through a 100 gauge 150 μm diameter stainless steel sieve and adjusted to 4×10^6/ml. The cell suspensions were inoculated onto a 96 wells cell culture plate, 100 μl/well with the following design. Assay wells: 100 μl cell suspension+100 μl ConA Control wells: 100 μl cell suspension+100 μl RPMI-1640 Four assay and four control wells were set up for each animal. The plates were incubated at 37° C., 5% CO2 for 68 hours. MTT was then added and the plates read at OD 570 nm referenced at 630 nm with ELISA reader. Stimulation Index SI (%)=(assay well OD/control well OD)×100%.

Masugi nephritis rabbits [3] = assay: Masugi nephritis in rabbits: urine protein; assay type: in vivo; details: 0.1 mg/kg/day i.v.
Description: (§1) Twenty-two healthy rabbits were randomized into 5 groups: peptide (107.3 μg/kg/day and 58.5 μg/kg/day, 4 rabbits per group), dexamethasone (0.1 mg/kg/day, 4 rabbits), saline treatment (1 ml/day, 7 rabbits), and normal healthy (3 rabbits). Before the establishment of a disease state in the rabbits, measurements of serum BUN, creatinine, and urine protein over 24 hours were taken for each rabbit. If there was no abnormality in these measurements, the Masugi nephritis model was established in experimental rabbits by intravenous injection of sheep anti-rabbit renal cortex antiserum via the auricular vein, 0.5 ml per injection, one injection every 30 minutes, for a total of 4 injections per rabbit. The normal healthy (control) rabbit group was injected with saline in the same manner. Intravenous administration of the test substances via the auricular vein was started on the day after the injection of the antiserum, once per day, 1 ml per injection, for 30 consecutive days.
Urine was collected from each rabbit over a 24 hour period once per week and the protein content determined by the sulfosalicylic acid method.
(§2) Statistical significance was determined by the t-test of the SPSS software.

Masugi nephritis rabbits [4] = assay: Masugi nephritis in rabbits: clearance of sheep anti-rabbit renal cortex IgG antibody (glomerular immunofluorescence); assay type: in vivo; details: 0.1 mg/kg/day i.v. 30 days, saline treatment 8.7 ± 0.9
Description: as §1, with “Before” for “Twenty-two healthy rabbits were randomized into 5 groups: peptide (107.3 μg/kg/day and 58.5 μg/kg/day, 4 rabbits per group), dexamethasone (0.1 mg/kg/day, 4 rabbits), saline treatment (1 ml/day, 7 rabbits), and normal healthy (3 rabbits). Before”
For observation of the effects of peptides on the clearance of sheep anti-rabbit renal cortex IgG antibody from Masugi nephritis rabbits, on the day after the last test substance administration, the rabbits were sacrificed by suffocation and the right kidney was extirpated, freeze-edged and then immunofluorescently stained for the presence of sheep IgG. The fluorescence-positive area of each glomerulus was counted. Thirty glomeruli per rabbit were examined and the average positive area per glomerulus was calculated.
as §2

[5] = at suitable dosage, vs saline control P<0.05

VANPK [CMS-010.105]
OD (mice T-lymphocyte [1]; peptide 0.64 μg/ml, ConA control 0.467 ± 0.043): 0.386 ± 0.008
OD (mice T-lymphocyte [1]; peptide 80 μg/ml, MTT OD570 nm ref 630 nm, ConA control 0.467 ± 0.043, negative control 0.134 ± 0.011): 0.407 ± 0.019
Effect on mice T-lymphocyte transformation induced by ConA in vitro (mice T-lymphocyte [1]; at suitable concentrations, vs ConA positive control P<0.05): suppress

VAPEEHPTLLT [CMS-010.14]
Sarcoma volume (S180 sarcoma cells; 250 μg/kg/day): 0.29 ± 0.21
Sarcoma weight (S180 sarcoma cells; 250 μg/kg/day): 0.44 ± 0.30*^@
Sarcoma volume (S180 sarcoma cells; 500 μg/kg/day): 0.56 ± 0.53
Sarcoma weight (S180 sarcoma cells; 500 μg/kg/day): 0.67 ± 0.70
NK cell activity (%) (mice NK cell; Table 9, 50 μg/kg/day i.p. 20 days, saline 55.3 ± 6.1): 75.3 ± 9.0 %
NK cell activity (%) (mice NK cell; Table 9, 200 μg/kg/day i.p. 20 days, saline 55.3 ± 6.1): 43.1 ± 13.7 %
Effect on mice NK cell activity in vivo (enhancement) (mice NK cell; [5]): enhance
SI (mice T-lymphocyte [2]; Table 7, 50 μg/kg/d i.p. 20 days, saline 2.96 ± 0.61): 2.12 ± 0.51
Effect on mice T-lymphocyte transformation in vivo (mice T-lymphocyte [2]): suppress

APLNPK [CMS-010.24]
Sarcoma volume (S180 sarcoma cells; 250 μg/kg/day): 0.36 ± 0.30
Sarcoma weight (S180 sarcoma cells; 250 μg/kg/day): 0.61 ± 0.39
Sarcoma volume (S180 sarcoma cells; 500 μg/kg/day): 0.62 ± 0.47
Sarcoma weight (S180 sarcoma cells; 500 μg/kg/day): 1.20 ± 0.79
NK cell activity (%) (mice NK cell; Table 8, 50 μg/kg/day i.p. 20 days, saline 76.0 ± 4.3): 56.0 ± 6.0 %
NK cell activity (%) (mice NK cell; Table 8, 200 μg/kg/day i.p. 20 days, saline 76.0 ± 4.3): 69.0 ± 7.4 %
Effect on mice NK cell activity in vivo (suppression) (mice NK cell; [5]): suppress
SI (mice T-lymphocyte [2]; Table 4, 50 μg/kg/day i.p. 20 days, saline 3.63 ± 0.69): 2.40 ± 0.31
Effect on mice T-lymphocyte transformation in vivo (mice T-lymphocyte [2]): suppress

Dexamethasone Sodium Phosphate [reference compound]
proteinuria Week 0 (Masugi nephritis rabbits [3]; Week 0, saline treatment 11.72 ± 3.18): 9.48 ± 8.46 mg/dL
proteinuria Week 1 (Masugi nephritis rabbits [3]; Week 1, saline treatment 122 ± 91): 29 ± 12 mg/dL
proteinuria Week 2 (Masugi nephritis rabbits [3]; Week 2, saline treatment 160 ± 138): 13.6 ± 6.3 mg/dL
proteinuria Week 3 (Masugi nephritis rabbits [3]; Week 3, saline treatment 145 ± 33): 13.7 ± 3.1 mg/dL
proteinuria Week 4 (Masugi nephritis rabbits [3]; Week 4, saline treatment 157 ± 71): 25 ± 19 mg/dL
Positive area count/glomerulus (Masugi nephritis rabbits [4]): 7.5 ± 1.0
